Assay [1] concerns the target P70S6K (T412E mutant, Millipore) (Homo sapiens (Human), UniProt P23443, T412E). Kind of assay: P70S6K enzyme assay. The assay is classed as biochemical. The conditions noted are these: 24 μM ATP, 90 min at 25° C. How it is done: P70S6K inhibitor compounds were diluted and plated in 96 well plates. A reaction mixture including the following components was then added to the compound plate to initiate the enzyme reaction; P70S6K (3 nM, T412E mutant, Millipore) was mixed with 24 μM ATP in an assay buffer containing 100 mM Hepes (pH 7.5), 5 mM MgCl2, 1 mM DTT, 0.015% Brij and 1 μM of the substrate peptide FITC-AHA-AKRRRLSSLRA-OH (derived from the S6 ribosomal protein sequence, FITC=fluorescein isothiocyanate, AHA=6-aminohexanoic acid). The reaction was incubated for 90 min at 25° C., before the addition of 10 mM EDTA to stop the reaction. The proportion of substrate and product (phosphorylated) peptide was analysed on a Caliper Life Sciences Lab Chip 3000, using a pressure of −1.4 psi, and upstream and downstream voltages of −3000 and −700 respectively. Product peaks were resolved before substrate peaks on the resulting chromatograms.

For a further assay, the target named is His-AKT (Full Length) (Homo sapiens (Human), UniProt P31749). Description: AKT enzyme assay. The format is biochemical. The conditions noted are these: 160 uM ATP, 90 min at 25° C. Here is the method:
A TTP Mosquito liquid handling instrument was used to place 125 nl of the appropriate concentration of inhibitor in 100% DMSO (for a dose response curve calculation) into each well of a 384-well plate. To this reaction components were added to a final volume of 12.5 μl: • 0.1 ng/μl His-AKT (Full Length), (Invitrogen, Part # P2999, Lot #641228C). • 160 uM ATP (Fluka, 02055) • 1 mM DTT (Sigma, D0632) • 1 mM MgCl2 (Sigma, M1028) • 1 μM substrate peptide (sequence FITC-AHA-GRPRTSSFAEG-NH2), • synthesized by Tufts Peptide Synthesis service. • 100 mM HEPES pH 7.5 (Calbiochem, 391338) • 0.015% Brij-35 (Sigma, B4184)
The reaction was incubated for 90 min at 25° C., and then stopped by the addition of 70 μl of Stop buffer (100 mM HEPES pH 7.5, 0.015% Brij-35, 10 mM EDTA (Sigma, E7889)).
The plate was read on a Caliper LC 3000 in an Off-Chip mobility shift assay format, using the following parameters for a 12-sipper chip: screening pressure −2.3 psi, upstream voltage −500, and downstream voltage −3000. These conditions caused unphosphorylated substrate and phosphorylated product peptide to resolve as separate peaks allowing direct measurement of percentage of conversion of substrate to product. The percent conversion was plotted against concentration of inhibitor to produce a sigmoidal dose response curve, from which an IC50 was calculated.

The structures appear in SMILES notation. Bounds are passed on as bounds.

Sequence of P70S6K (T412E mutant, Millipore) (P23443 whole entry T412E): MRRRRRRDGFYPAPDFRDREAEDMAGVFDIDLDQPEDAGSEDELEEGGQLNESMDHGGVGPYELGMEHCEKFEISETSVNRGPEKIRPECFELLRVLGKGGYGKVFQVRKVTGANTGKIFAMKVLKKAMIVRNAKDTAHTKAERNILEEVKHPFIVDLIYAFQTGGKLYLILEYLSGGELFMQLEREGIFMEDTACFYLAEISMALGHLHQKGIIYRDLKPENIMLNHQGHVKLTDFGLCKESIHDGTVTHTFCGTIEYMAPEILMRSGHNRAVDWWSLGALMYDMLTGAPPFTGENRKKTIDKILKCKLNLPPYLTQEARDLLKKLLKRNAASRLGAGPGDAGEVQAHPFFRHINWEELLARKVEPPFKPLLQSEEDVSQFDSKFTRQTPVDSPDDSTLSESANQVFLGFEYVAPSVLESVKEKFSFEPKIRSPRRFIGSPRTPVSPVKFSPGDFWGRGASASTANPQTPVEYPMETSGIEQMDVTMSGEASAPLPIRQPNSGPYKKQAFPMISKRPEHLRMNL
Sequence of His-AKT (Full Length) (P31749 whole entry): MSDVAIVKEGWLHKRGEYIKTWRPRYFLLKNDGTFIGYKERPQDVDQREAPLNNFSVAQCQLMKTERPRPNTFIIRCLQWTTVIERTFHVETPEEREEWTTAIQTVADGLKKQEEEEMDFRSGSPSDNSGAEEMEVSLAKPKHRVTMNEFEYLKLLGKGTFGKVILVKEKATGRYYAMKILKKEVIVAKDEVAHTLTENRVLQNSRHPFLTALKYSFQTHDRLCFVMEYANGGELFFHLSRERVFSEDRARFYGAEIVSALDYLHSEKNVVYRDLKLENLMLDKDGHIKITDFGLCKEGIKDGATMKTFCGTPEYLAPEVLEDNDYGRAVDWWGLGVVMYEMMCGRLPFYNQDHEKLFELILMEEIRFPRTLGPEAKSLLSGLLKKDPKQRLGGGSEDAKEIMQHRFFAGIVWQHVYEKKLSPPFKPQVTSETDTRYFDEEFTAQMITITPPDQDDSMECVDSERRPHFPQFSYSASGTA

For orientation: IC50 means the concentration that gives 50% inhibition. A high value points to weaker potency in that assay. For the molecule `O=C1CNc2ncnc(N3CCN(C(CN4CCCCC4)c4ccccc4F)CC3)c2N1` (stereo not drawn) [Compound A38, 4-(4-(1-(2-fluorophenyl)-2-(piperidin-1-yl)ethyl)piperazin-1-yl)-7,8-dihydropteridin-6(5H)-one], the IC50 (in assay [1]; at His-AKT (Full Length)) was over 1 µM throughout.

For the molecule `NCC(c1ccccc1Cl)N1CCN(c2ncnc3c2NC(=O)CN3)CC1` (stereo not drawn) [Compound A39, 4-(4-(2-amino-1-(2-chlorophenyl)ethyl)piperazin-1-yl)-7,8-dihydropteridin-6(5H)-one], the IC50 (in assay [1]; against His-AKT (Full Length)) was over 1 µM throughout.

Take `CN(C)CC(c1ccccc1Cl)N1CCN(c2ncnc3c2NC(=O)CN3)CC1` (stereo not drawn) [Compound A40, 4-(4-(1-(2-chlorophenyl)-2-(dimethylamino)ethyl)piperazin-1-yl)-7,8-dihydropteridin-6(5H)-one]: the IC50 (in assay [1]; at His-AKT (Full Length)) was over 1 µM in each case.

Regarding `CNCC(c1ccccc1Cl)N1CCN(c2ncnc3c2NC(=O)CN3)CC1` (stereo not drawn) [Compound A41, 4-(4-(1-(2-chlorophenyl)-2-(methylamino)ethyl)piperazin-1-yl)-7,8-dihydropteridin-6(5H)-one], the IC50 (in assay [1]; at His-AKT (Full Length)) was over 1 µM in each case.

As to `O=C1CNc2ncnc(N3CCN(C(CN4CCC4)c4ccccc4Cl)CC3)c2N1` (stereo not drawn) [Compound A42, 4-(4-(2-(azetidin-1-yl)-1-(2-chlorophenyl)ethyl)piperazin-1-yl)-7,8-dihydropteridin-6(5H)-one], the IC50 (in assay [1]; against His-AKT (Full Length)) was over 1 µM each time.

Regarding `O=C1CNc2ncnc(N3CCN(C(CN4CCCC4)c4ccccc4Cl)CC3)c2N1` (stereo not drawn) [Compound A43, 4-(4-(1-(2-chlorophenyl)-2-(pyrrolidin-1-yl)ethyl)piperazin-1-yl)-7,8-dihydropteridin-6(5H)-one], the IC50 (in assay [1]; against His-AKT (Full Length)) was over 1 µM in each case.

For `O=C1CNc2ncnc(N3CCN(C(CN4CCCCC4)c4ccccc4Cl)CC3)c2N1` (stereo not drawn) [Compound A44, 4-(4-(1-(2-chlorophenyl)-2-(piperidin-1-yl)ethyl)piperazin-1-yl)-7,8-dihydropteridin-6(5H)-one], the concentration for half-maximal inhibition (IC50) (in assay [1]; against His-AKT (Full Length)) was over 1 µM in each case.

For `Cc1ccccc1C(CN(C)C)N1CCN(c2ncnc3c2NC(=O)CN3)CC1` (stereo not drawn) [Compound A45, 4-(4-(2-(dimethylamino)-1-(o-tolyl)ethyl)piperazin-1-yl)-7,8-dihydropteridin-6(5H)-one], the IC50 (in assay [1]; against His-AKT (Full Length)) was over 1 µM each time.

In the case of `Cc1ccccc1C(CN1CCCC1)N1CCN(c2ncnc3c2NC(=O)CN3)CC1` (stereo not drawn) [Compound A46, 4-(4-(2-(pyrrolidin-1-yl)-1-(o-tolyl)ethyl)piperazin-1-yl)-7,8-dihydropteridin-6(5H)-one], the IC50 (in assay [1]; on His-AKT (Full Length)) was over 1 µM each time.

For the molecule `Cc1ccccc1C(CN1CCCCC1)N1CCN(c2ncnc3c2NC(=O)CN3)CC1` (stereo not drawn) [Compound A47, 4-(4-(2-(piperidin-1-yl)-1-(o-tolyl)ethyl)piperazin-1-yl)-7,8-dihydropteridin-6(5H)-one], the IC50 (in assay [1]; against His-AKT (Full Length)) was over 1 µM in each case.

Regarding `NCC(c1ccc(F)c(F)c1)N1CCN(c2ncnc3c2NC(=O)CN3)CC1` (stereo not drawn) [Compound A48], the IC50 (in assay [1]; against His-AKT (Full Length)) was over 1 µM throughout.

With `CN(C)CC(c1ccc(F)c(F)c1)N1CCN(c2ncnc3c2NC(=O)CN3)CC1` (stereo not drawn) [Compound A49, 4-(4-(1-(3,4-difluorophenyl)-2-(dimethylamino)ethyl)piperazin-1-yl)-7,8-dihydropteridin-6(5H)-one], the IC50 (in assay [1]; against His-AKT (Full Length)) was over 1 µM each time.

With `CNCC(c1ccc(F)c(F)c1)N1CCN(c2ncnc3c2NC(=O)CN3)CC1` (stereo not drawn) [Compound A50, 4-(4-(1-(3,4-difluorophenyl)-2-(methylamino)ethyl)piperazin-1-yl)-7,8-dihydropteridin-6(5H)-one], the IC50 (in assay [1]; against His-AKT (Full Length)) was over 1 µM in each case.

Regarding `O=C1CNc2ncnc(N3CCN(C(CN4CCC4)c4ccc(F)c(F)c4)CC3)c2N1` (stereo not drawn) [Compound A51, 4-(4-(2-(azetidin-1-yl)-1-(3,4-difluorophenyl)ethyl)piperazin-1-yl)-7,8-dihydropteridin-6(5H)-one], the IC50 (in assay [1]; on His-AKT (Full Length)) was over 1 µM throughout.

On to `O=C1CNc2ncnc(N3CCN(C(CN4CCCC4)c4ccc(F)c(F)c4)CC3)c2N1` (stereo not drawn) [Compound A52, 4-(4-(1-(3,4-difluorophenyl)-2-(pyrrolidin-1-yl)ethyl)piperazin-1-yl)-7,8-dihydropteridin-6(5H)-one], for which the IC50 (in assay [1]; on His-AKT (Full Length)) was over 1 µM each time.

`O=C1CNc2ncnc(N3CCN(C(CN4CCCCC4)c4ccc(F)c(F)c4)CC3)c2N1` (stereo not drawn) [Compound A53, 4-(4-(1-(3,4-difluorophenyl)-2-(piperidin-1-yl)ethyl)piperazin-1-yl)-7,8-dihydropteridin-6(5H)-one]: the IC50 (in assay [1]; against His-AKT (Full Length)) was over 1 µM throughout.

Regarding `CN(C)CC(c1ccc(F)c(Cl)c1)N1CCN(c2ncnc3c2NC(=O)CN3)CC1` (stereo not drawn) [Compound A54, 4-(4-(1-(3-chloro-4-fluorophenyl)-2-(dimethylamino)ethyl)piperazin-1-yl)-7,8-dihydropteridin-6(5H)-one], the IC50 (in assay [1]; on His-AKT (Full Length)) was over 1 µM each time.

Regarding `O=C1CNc2ncnc(N3CCN(C(CN4CCC4)c4ccc(F)c(Cl)c4)CC3)c2N1` (stereo not drawn) [Compound A55, 4-(4-(2-(azetidin-1-yl)-1-(3-chloro-4-fluorophenyl)ethyl)piperazin-1-yl)-7,8-dihydropteridin-6(5H)-one], the IC50 (in assay [1]; against His-AKT (Full Length)) was over 1 µM in each case.

As to `O=C1CNc2ncnc(N3CCN(C(CN4CCCC4)c4ccc(F)c(Cl)c4)CC3)c2N1` (stereo not drawn) [Compound A56, 4-(4-(1-(3-chloro-4-fluorophenyl)-2-(pyrrolidin-1-yl)ethyl)piperazin-1-yl)-7,8-dihydropteridin-6(5H)-one], the IC50 (in assay [1]; against His-AKT (Full Length)) was over 1 µM each time.

On to `O=C1CNc2ncnc(N3CCN(C(CN4CCCCC4)c4ccc(F)c(Cl)c4)CC3)c2N1` (stereo not drawn) [Compound A57], for which the IC50 (in assay [1]; at His-AKT (Full Length)) was over 1 µM each time.

With `CN(C)CC(c1ccc(Cl)c(F)c1)N1CCN(c2ncnc3c2NC(=O)CN3)CC1` (stereo not drawn) [Compound A58, 4-(4-(1-(4-chloro-3-fluorophenyl)-2-(dimethylamino)ethyl)piperazin-1-yl)-7,8-dihydropteridin-6(5H)-one], the IC50 is over 1 µM in assay [1] and 0.101 to 0.5 µM against His-AKT (Full Length).

Regarding `CNCC(c1ccc(Cl)c(F)c1)N1CCN(c2ncnc3c2NC(=O)CN3)CC1` (stereo not drawn) [Compound A59, 4-(4-(1-(4-chloro-3-fluorophenyl)-2-(methylamino)ethyl)piperazin-1-yl)-7,8-dihydropteridin-6(5H)-one], the IC50 (in assay [1]; on His-AKT (Full Length)) was over 1 µM in each case.

`O=C1CNc2ncnc(N3CCN(C(CN4CCC4)c4ccc(Cl)c(F)c4)CC3)c2N1` (stereo not drawn) [Compound A60, 4-(4-(2-(azetidin-1-yl)-1-(4-chloro-3-fluorophenyl)ethyl)piperazin-1-yl)-7,8-dihydropteridin-6(5H)-one]: the IC50 (in assay [1]; against His-AKT (Full Length)) was over 1 µM throughout.

With `O=C1CNc2ncnc(N3CCN(C(CN4CCCC4)c4ccc(Cl)c(F)c4)CC3)c2N1` (stereo not drawn) [Compound A61, 4-(4-(1-(4-chloro-3-fluorophenyl)-2-(pyrrolidin-1-yl)ethyl)piperazin-1-yl)-7,8-dihydropteridin-6(5H)-one], the values for the IC50 (in assay [1]; on His-AKT (Full Length)) were over 1 µM and 0.101 to 0.5 µM, respectively.

Values taken from patent US10287300B2 (Merck Patent GmbH, priority 2012, dated 2019).
